Results taken from patent US20260035355A1, “COMPOUND, PHARMACEUTICAL COMPOSITION COMPRISING SAME, AND USE THEREOF” (SHENZHEN ZHONGGE BIOLOGICAL TECHNOLOGY CO., LTD., priority 2022, published 2026).

System: cell monolayer
Assay: Evaluation of cell membrane permeability
Type: in vitro ADME
Conditions: not given
Method: (§1) The test compounds were diluted from 10 mM stock solutions to a concentration of 10 μM using the transport buffer (HBSS+BSA) and applied to the apical or basolateral side of the cell monolayer. After the incubation at 37° C., 5% CO2 and 95% relative humidity for 120 minutes, the permeability of the test compounds in the A to B direction or the B to A direction was dually determined. In addition, the efflux ratio (Papp B to A/Papp A to B) of each compound was determined. The test substances and reference substances were quantitatively analyzed by the LC-MS/MS method based on the analyte/IS peak area ratio.

P-glycoprotein substrate (in words)	cell membrane permeability (in words)	Compound
not P-glycoprotein substrates	good cell membrane permeability	O=C(COc1ccc(Cl)c(F)c1)NC1CC2(C1)CC(c1nnc(N3CC(OC(F)(F)F)C3)o1)C2 (stereo not drawn) [III-1]

System: not listed separately
Assay: Evaluation of cell membrane permeability
Type: in vitro ADME
Conditions: 10 μM, 120 minutes; read-out: Efflux Ratio (Papp B to A/Papp A to B)
Method: as §1

efflux ratio at 120 min, 10 μM	Compound
44.7	C[C@H]1O[C@@H](O[C@H]2[C@@H](O)C[C@H](O[C@H]3[C@@H](O)C[C@H](O[C@H]4CC[C@@]5(C)[C@H](CC[C@@H]6[C@@H]5C[C@@H](O)[C@]5(C)[C@@H](C7=CC(=O)OC7)CC[C@]65O)C4)O[C@@H]3C)O[C@@H]2C)C[C@H](O)[C@@H]1O [Digoxin]
1.05	O=C(COc1ccc(Cl)c(F)c1)NC1CC2(C1)CC(c1nnc(N3CC(OC(F)(F)F)C3)o1)C2 (stereo not drawn) [III-1]

Same assay, conditions: 10 μM, transport buffer (HBSS+BSA), 37° C., 120 minutes

Papp A→B at 120 min, 10 μM [×10⁻⁶ cm/s]	Papp B→A at 120 min, 10 μM [×10⁻⁶ cm/s]	Compound
0.25	11.2	C[C@H]1O[C@@H](O[C@H]2[C@@H](O)C[C@H](O[C@H]3[C@@H](O)C[C@H](O[C@H]4CC[C@@]5(C)[C@H](CC[C@@H]6[C@@H]5C[C@@H](O)[C@]5(C)[C@@H](C7=CC(=O)OC7)CC[C@]65O)C4)O[C@@H]3C)O[C@@H]2C)C[C@H](O)[C@@H]1O [Digoxin]
17.7	18.6	O=C(COc1ccc(Cl)c(F)c1)NC1CC2(C1)CC(c1nnc(N3CC(OC(F)(F)F)C3)o1)C2 (stereo not drawn) [III-1]
32.4	20.1	CC(C)NCC(O)COc1cccc2ccccc12 (stereo not drawn) [Propranolol]

Molecular target: T1, eIF2B (Homo sapiens, UniProt P49770+Q9UI10)
T1 construct: endogenous in cells; host or cells: HEK293T/17-ATF4 uORF-Luc-Puro monoclonal cells
T1 sequence (P49770 whole entry): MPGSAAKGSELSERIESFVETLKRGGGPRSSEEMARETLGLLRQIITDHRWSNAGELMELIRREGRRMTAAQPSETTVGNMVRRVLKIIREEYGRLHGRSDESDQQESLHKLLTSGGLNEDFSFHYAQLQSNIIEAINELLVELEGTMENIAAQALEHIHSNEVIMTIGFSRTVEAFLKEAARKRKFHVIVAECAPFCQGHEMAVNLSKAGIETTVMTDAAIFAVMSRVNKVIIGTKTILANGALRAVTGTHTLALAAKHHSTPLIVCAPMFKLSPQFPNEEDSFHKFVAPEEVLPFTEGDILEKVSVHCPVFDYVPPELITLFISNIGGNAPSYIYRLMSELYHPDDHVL
T1 sequence (Q9UI10 whole entry): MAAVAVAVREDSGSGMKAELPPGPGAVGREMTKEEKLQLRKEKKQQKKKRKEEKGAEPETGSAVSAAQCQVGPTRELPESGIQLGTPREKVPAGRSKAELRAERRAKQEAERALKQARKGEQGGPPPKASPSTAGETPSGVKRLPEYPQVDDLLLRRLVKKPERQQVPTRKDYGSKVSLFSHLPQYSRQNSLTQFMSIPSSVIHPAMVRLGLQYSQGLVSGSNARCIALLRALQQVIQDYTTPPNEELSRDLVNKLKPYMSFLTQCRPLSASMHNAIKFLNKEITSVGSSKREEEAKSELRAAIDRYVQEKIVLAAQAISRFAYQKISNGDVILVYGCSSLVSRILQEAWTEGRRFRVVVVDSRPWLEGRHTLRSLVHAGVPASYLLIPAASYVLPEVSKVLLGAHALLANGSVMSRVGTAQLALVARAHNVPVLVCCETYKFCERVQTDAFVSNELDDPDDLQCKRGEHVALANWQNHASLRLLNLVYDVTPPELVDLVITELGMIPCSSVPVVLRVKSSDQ
T1 sequence (Q14232 whole entry partner): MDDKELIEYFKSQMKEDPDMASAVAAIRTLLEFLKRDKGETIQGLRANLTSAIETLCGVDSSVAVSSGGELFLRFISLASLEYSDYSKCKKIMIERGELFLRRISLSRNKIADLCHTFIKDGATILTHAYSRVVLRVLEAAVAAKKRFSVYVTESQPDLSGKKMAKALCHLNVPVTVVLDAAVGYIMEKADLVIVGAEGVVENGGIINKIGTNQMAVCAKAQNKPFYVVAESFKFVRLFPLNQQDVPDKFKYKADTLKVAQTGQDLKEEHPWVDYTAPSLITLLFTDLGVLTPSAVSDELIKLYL
T1 sequence (Q9NR50 whole entry partner): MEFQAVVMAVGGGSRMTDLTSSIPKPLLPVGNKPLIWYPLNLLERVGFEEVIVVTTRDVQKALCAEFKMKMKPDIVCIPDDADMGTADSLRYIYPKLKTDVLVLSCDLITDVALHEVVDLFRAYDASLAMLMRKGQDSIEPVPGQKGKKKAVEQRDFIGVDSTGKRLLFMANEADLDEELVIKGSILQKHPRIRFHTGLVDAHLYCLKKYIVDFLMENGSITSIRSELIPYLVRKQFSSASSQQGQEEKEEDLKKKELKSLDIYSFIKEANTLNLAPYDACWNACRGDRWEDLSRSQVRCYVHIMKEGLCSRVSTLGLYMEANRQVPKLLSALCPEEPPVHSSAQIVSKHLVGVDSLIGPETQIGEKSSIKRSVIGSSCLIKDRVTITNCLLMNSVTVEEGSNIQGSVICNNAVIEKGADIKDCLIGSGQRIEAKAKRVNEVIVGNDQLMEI
T1 sequence (Q13144 whole entry partner): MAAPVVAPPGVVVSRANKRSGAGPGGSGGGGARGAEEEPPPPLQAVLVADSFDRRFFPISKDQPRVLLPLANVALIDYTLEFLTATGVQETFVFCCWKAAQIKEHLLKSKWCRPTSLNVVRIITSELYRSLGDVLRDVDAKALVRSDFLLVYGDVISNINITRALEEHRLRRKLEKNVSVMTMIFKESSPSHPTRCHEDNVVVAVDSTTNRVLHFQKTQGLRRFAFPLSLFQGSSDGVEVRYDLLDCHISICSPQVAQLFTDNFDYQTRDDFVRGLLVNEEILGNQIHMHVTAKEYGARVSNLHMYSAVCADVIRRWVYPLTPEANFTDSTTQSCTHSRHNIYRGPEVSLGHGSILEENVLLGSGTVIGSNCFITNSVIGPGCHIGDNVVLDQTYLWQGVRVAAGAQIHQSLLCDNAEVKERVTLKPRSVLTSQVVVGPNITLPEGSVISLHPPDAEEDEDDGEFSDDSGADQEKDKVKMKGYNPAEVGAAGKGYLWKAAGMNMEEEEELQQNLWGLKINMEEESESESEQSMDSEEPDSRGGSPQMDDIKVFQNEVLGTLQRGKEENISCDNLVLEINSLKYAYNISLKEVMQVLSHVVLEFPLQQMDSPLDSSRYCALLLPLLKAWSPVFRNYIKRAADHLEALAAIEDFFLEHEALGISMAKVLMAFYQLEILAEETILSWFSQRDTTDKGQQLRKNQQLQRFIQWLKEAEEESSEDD
Assay: ATF4-Luc assay (ATF4 luciferase reporter, thapsigargin-induced stress)
Type: cell-based
Conditions: HEK293T/17-ATF4 uORF-Luc-Puro monoclonal cells, 50 nM thapsigargin, incubated for 6 hours
Source text: The ATF4 luciferase reporter plasmid consists of two parts, i.e., the 5′ untranslated region sequence of the ATF4 gene and the luciferase coding sequence. Specifically, the ATF4 5′ untranslated region sequence (NCBI database number BC022088.2) containing two upstream open reading frames (uORFs), and the firefly luciferase encoding gene were cloned into the pLVX-Puro vector (YouBio, VT1465). The packaging plasmids of lentivirus were psPAX2 (YouBio, VT1444) and pMD2.G (YouBio, VT1443). 650,000 HEK293T cells were seeded per well of a 6-well plate and cultured overnight in a 5% CO2 incubator. The cells were transfected with the packaged lentivirus for 48 hours and then centrifuged, and the supernatant was discarded. The medium was replaced and changed to the DMEM complete medium containing 0.8 μg/ml puromycin, and the cells were resuspended and then cultured. After one week of cell screening with puromycin, the surviving cells were HEK293T-ATF4 uORF-Luc-Puro polyclonal cells. 200 polyclonal cells were taken and subjected to limiting gradient dilution by using a 96-well plate, so as to obtain monoclonal cells.
The specific method for screening the monoclonal cells involves: placing the 200 polyclonal cells in well A1 of the 96-well plate; step one: performing gradient dilution from columns A1 to H1 at a ratio of 1:2; step two: performing gradient dilution from rows A to H, with each row from wells 1 to 12 at a ratio of 1:2; marking the wells with a theoretical cell number less than 0.5 and observing one by one under a microscope; marking the wells with only one cell; and culturing the cells for two weeks to obtain the monoclonal cells.
By using this cell line and the cold fluorescence readings, the translational regulation of ATF4 can be detected, and the activity of eIF2B activated by the compounds can be tested.
The specific experimental process is as follows: 6000 HEK293T/17-ATF4 uORF-Luc-Puro monoclonal cells were plated in a 384-well plate and allowed to adhere overnight. The test compounds were dissolved in DMSO and diluted to 10 different concentrations, which were respectively added together with 50 nM thapsigargin to the cell culture medium and incubated for 6 hours, wherein the thapsigargin was used to cause cellular stress and upregulate the protein translation of ATF4. Six hours after the addition, the cells were lysed using the One-Glo Luciferase Assay Kit (Promega #E6120), and then the cold fluorescence values were read using the LUM program of the EnVision 2104 plate reader.
EC50 was calculated based on the fluorescence values at 9 concentrations (0.1 nM, 0.3 nM, 1.0 nM, 3.0 nM, 10.0 nM, 30.0 nM, 100.0 nM, 300.0 nM and 1000.0 nM) of each compound and recorded in Table 1.
The ATF4 reporter expression was calculated as follows:
ATF4 reporter expression=(ave_sample-ave_vc)/(ave_pc-ave_vc)
where ave_vc represents the average signal value of negative controls, ave_pc represents the average signal value of positive controls, and ave_sample represents the average signal value of samples.
The dose-response curves were fitted, and the EC50 values were calculated.
The nonlinear regression log(inhibitor) vs. response—variable slope (four parameters) method of GraphPad 9 software was used to fit the corresponding relationship between the ATF4 reporter expression and the compound concentration.
The X-axis represents the log value of the compound concentration; and the Y-axis represents the ATF4 reporter expression.

Compound	EC50 [nM]
O=C(COc1ccc(Cl)c(F)c1)NC1CC12CCN(C(=O)c1cnc(C(F)F)cn1)CC2 (stereo not drawn) [I-1]	> 100
O=C(COc1ccc(Cl)c(F)c1)NC1CC12CCN(C(=O)c1cc3cc(Cl)ccc3o1)CC2 (stereo not drawn) [I-2]	> 100
O=C(COc1ccc(Cl)c(F)c1)NC1CC12CCN(C(=O)[C@H]1CNc3cc(Cl)ccc3O1)CC2 (stereo partly drawn) [I-3]	> 100
CN1C[C@H](C(=O)N2CCC3(CC2)CC3NC(=O)COc2ccc(Cl)c(F)c2)Oc2ccc(Cl)cc21 (stereo partly drawn) [I-4]	> 100
O=C(COc1ccc(Cl)c(F)c1)NC1CC12CCN(NC(=O)COc1ccc(Cl)c(F)c1)CC2 (stereo not drawn) [I-5]	> 100
O=C(COc1ccc(Cl)c(F)c1)NC1CC12CCN(NC(=O)c1cc3cc(Cl)ccc3o1)CC2 (stereo not drawn) [I-6]	> 100
O=C(COc1ccc(Cl)c(F)c1)NC1CC12CCN(NC(=O)[C@H]1CNc3cc(Cl)ccc3O1)CC2 (stereo partly drawn) [I-7]	> 100
CN1C[C@H](C(=O)NN2CCC3(CC2)CC3NC(=O)COc2ccc(Cl)c(F)c2)Oc2ccc(Cl)cc21 (stereo partly drawn) [I-8]	> 100
O=C(NC1CC12CCN(C(=O)c1cc3cc(Cl)ccc3o1)CC2)c1cc2cc(Cl)ccc2o1 (stereo not drawn) [I-9]	> 100
O=C(NC1CC12CCN(NC(=O)c1cc3cc(Cl)ccc3o1)CC2)c1cc2cc(Cl)ccc2o1 (stereo not drawn) [I-10]	10 to 100
O=C(COc1ccc(Cl)c(F)c1)NC1CCC2(CC1)CN(C(=O)COc1ccc(Cl)c(F)c1)C2 [V-10]	10 to 100
O=C(COc1ccc(Cl)c(F)c1)NC1CCC2(CC1)CN(C(=O)c1cnc(C(F)F)cn1)C2 [V-11]	> 100
O=C(COc1ccc(Cl)c(F)c1)NC1CCC2(CC1)CN(C(=O)C1CNc3cc(Cl)ccc3O1)C2 (stereo not drawn) [V-12]	> 100

Next, values leading:

EC50 [nM]	Compound
> 100	O=C(COc1ccc(Cl)c(F)c1)NC1COC2(C1)CN(C(=O)c1cnc(C(F)F)cn1)C2 (stereo not drawn) [II-10]
> 100	O=C(COc1ccc(Cl)c(F)c1)NC1COC2(C1)CN(C(=O)COc1ccc(Cl)c(F)c1)C2 (stereo not drawn) [II-11]
10 to 100	O=C(COc1ccc(Cl)c(F)c1)NC1COC2(C1)CN(C(=O)c1cc3cc(Cl)ccc3o1)C2 (stereo not drawn) [II-12]
> 100	O=C(COc1ccc(Cl)c(F)c1)NC1COC2(C1)CN(C(=O)[C@H]1CNc3cc(Cl)ccc3O1)C2 (stereo partly drawn) [II-13]
> 100	CN1C[C@H](C(=O)N2CC3(CC(NC(=O)COc4ccc(Cl)c(F)c4)CO3)C2)Oc2ccc(Cl)cc21 (stereo partly drawn) [II-14]
< 10	O=C(COc1ccc(Cl)c(F)c1)NC1CC2(C1)CC(c1nnc(N3CC(OC(F)(F)F)C3)o1)C2 (stereo not drawn) [III-1]
> 100	O=C(COc1ccc(Cl)c(F)c1)NC1CC2(C1)CC(NC(=O)COc1ccc(Cl)c(F)c1)C2 (stereo not drawn) [III-10]
> 100	O=C(COc1ccc(Cl)c(F)c1)NC1CC2(C1)CC(NC(=O)c1cnc(C(F)F)cn1)C2 (stereo not drawn) [III-11]
> 100	CN1CC(C(=O)NC2CC3(CC(NC(=O)COc4ccc(Cl)c(F)c4)C3)C2)Oc2ccc(Cl)cc21 (stereo not drawn) [III-12]
10 to 100	O=C(COc1ccc(Cl)c(F)c1)NC1CC2(C1)CC(NC(=O)C1CNc3cc(Cl)ccc3O1)C2 (stereo not drawn) [III-13]
10 to 100	O=C(COc1ccc(Cl)c(F)c1)NC1CC2(CCN(c3nnc(N4CC(OC(F)(F)F)C4)o3)CC2)C1 [IV-1]
10 to 100	O=C(COc1ccc(Cl)c(F)c1)NC1CC2(CCN(C(=O)COc3ccc(Cl)c(F)c3)CC2)C1 [IV-11]
> 100	O=C(COc1ccc(Cl)c(F)c1)NC1CC2(CCN(C(=O)c3cnc(C(F)F)cn3)CC2)C1 [IV-12]
< 10	O=C(COc1ccc(Cl)c(F)c1)NC1CC2(CCN(C(=O)[C@H]3CNc4cc(Cl)ccc4O3)CC2)C1 [IV-13]
10 to 100	O=C(COc1ccc(Cl)c(F)c1)NC1CC2(CCN(c3nnc(-c4ccc(Cl)cc4)o3)CC2)C1 [IV-14]
> 100	CN1C[C@H](C(=O)N2CCC3(CC2)CC(NC(=O)COc2ccc(Cl)c(F)c2)C3)Oc2ccc(Cl)cc21 [IV-15]
> 100	O=C(CO[C@H]1C[C@@H](OC(F)(F)F)C1)NC1CC2(CCN(C(=O)c3cc4cc(Cl)ccc4o3)CC2)C1 [IV-16]
> 100	O=C(CO[C@H]1C[C@@H](OC(F)(F)F)C1)NC1CC2(CCN(C(=O)COc3ccc(Cl)c(F)c3)CC2)C1 [IV-17]
10 to 100	O=C(NC1CC2(CCN(C(=O)[C@@H]3CNc4cc(Cl)ccc4O3)CC2)C1)[C@H]1CNc2cc(Cl)ccc2O1 [IV-18]
10 to 100	O=C(COc1ccc(Cl)c(F)c1)NC1CC2(CCN(C(=O)c3cc4cc(Cl)ccc4o3)CC2)C1 [IV-19]
< 10	O=C(NC1CC2(CCN(C(=O)c3cc4cc(Cl)ccc4o3)CC2)C1)c1cc2cc(Cl)ccc2o1 [IV-20]
10 to 100	O=C(COc1ccc(Cl)c(F)c1)NC1CC2(CCC(c3nnc(N4CC(OC(F)(F)F)C4)o3)CC2)C1 (stereo not drawn) [VI-1]
< 10	O=C(COc1ccc(Cl)c(F)c1)NC1CCC(c2nnc(N3CC(OC(F)(F)F)C3)o2)C2(CC2)C1 (stereo not drawn) [VIII-1]

System: not listed separately
Assay: Pharmacokinetic evaluation in mice
Type: in vivo
Conditions: mouse, in vivo
Method: The test compounds were dissolved in vehicles to prepare clear solutions or homogeneous suspensions. Three mice were placed in each group and received an intravenous (IV) administration via the tail vein at 1 mg/kg and an oral (PO) administration at 30 mg/kg. Blood samples were collected at 0.083 h, 0.25 h, 0.5 h, 1 h, 2 h, 4 h, 8 h, and 24 h after the intravenous administration, and at 0.25 h, 0.5 h, 1 h, 2 h, 4 h, 6 h, 8 h, and 24 h after the oral administration. Plasma samples were centrifuged, and the supernatant was collected to prepare samples, which were then quantitatively analyzed by LC/MS/MS.

Compound	pharmacokinetic properties in mice (in words)
O=C(COc1ccc(Cl)c(F)c1)NC1CC2(C1)CC(c1nnc(N3CC(OC(F)(F)F)C3)o1)C2 (stereo not drawn) [III-1]	excellent pharmacokinetic properties in mice

Same assay, conditions: plasma; mouse IV 1 mg/kg

AUC(0-inf) [ng·h/mL]	C0 [ng/mL]	clearance [mL/min/kg]	half-life [h]	Compound
2230	1340	7.5	2.07	O=C(COc1ccc(Cl)c(F)c1)NC1CC2(C1)CC(c1nnc(N3CC(OC(F)(F)F)C3)o1)C2 (stereo not drawn) [III-1]

Same assay, conditions: plasma; mouse IV 1 mg/kg; read-out: Vss

Vd [L/kg]	Compound
1.18	O=C(COc1ccc(Cl)c(F)c1)NC1CC2(C1)CC(c1nnc(N3CC(OC(F)(F)F)C3)o1)C2 (stereo not drawn) [III-1]

Same assay, conditions: plasma; mouse PO 30 mg/kg

AUC(0-inf) [ng·h/mL]	Cmax [ng/mL]	Tmax [h]	bioavailability [%]	half-life [h]	Compound
111000	21500	1.33	177	1.93	O=C(COc1ccc(Cl)c(F)c1)NC1CC2(C1)CC(c1nnc(N3CC(OC(F)(F)F)C3)o1)C2 (stereo not drawn) [III-1]

System: model animals
Assay: not given
Conditions: oral administration for three days; cited from earlier work

Compound	brain function (in words)
NC(CO)(CO)CO.O=C(COc1ccc(Cl)c(F)c1)NC12CCC(NC(=O)COc3ccc(Cl)c(F)c3)(CC1)[C@@H](OCOP(=O)([O-])O)C2.[Na+] [ABBV-CLS-7262]	restored to youthful levels

System: healthy participants
Assay: not given
Conditions: Phase 1, healthy participants; cited from earlier work

Compound	safety and tolerability (in words)
O=C(COc1ccc(Cl)cc1)NC12CC(c3nnc([C@H]4C[C@@H](OC(F)(F)F)C4)o3)(C1)C2 [DNL-343]	demonstrated its safety and tolerability

System: mouse models
Assay: not given
Conditions: cited from earlier work

Compound	long-term memory (in words)
O=C(COc1ccc(Cl)cc1)NC1CCC(NC(=O)COc2ccc(Cl)cc2)CC1 (stereo not drawn) [ISRIB]	improve long-term memory
